System: leaky retinal blood vessels
Assay: Fundus fluorescence angiogram imaging in lipid injected rat CNV model
Type: in vivo, brown Norway rats
Conditions: 5 mg/kg, imaging on day 21 after lipid injection, 488 filter
Experimental: White arrows indicate precise location of retinal leakage identified by D-FITC nanoparticles.
Dendrimer fluorescent probes were investigated for their application in longitudinal imaging of retinal inflammation and oxidative stress. […] Lipid was injected in brown Norway rats via subretinal injection at day 0 and the fluorescence angiogram imaging was performed on day 21. The rats were anesthetized and administered with sodium fluorescein or D-FITC (5 mg/kg) and the rats were imaged under Micron-3 fundus microscope using a 488 filter at different time points (10 mins, 1 hr and 4 hrs). […] Free FITC perfuses and clears from the retina quickly within 1 hr. At early time points (10 mins) post injection free FITC leaked from the retinal blood vessels (FIG. 2, white arrows) in the areas of inflammation causing fluorescence background thereby making in unclear the exact location of the leaky blood vessels.

Compound: O=C1OC2(c3ccc(O)cc3Oc3cc(O)ccc32)c2ccccc21 [free FITC, sodium fluorescein]
- time to clearance from the retina: ≤ 1 h

— patent US11160881B2, “Dendrimer compositions for use in angiography” (The Johns Hopkins University, priority 2017, dated 2021)
